In patent publication US10894817B2, “Fatty acid modified urocortin-2 analogs for the treatment of diabetes and chronic kidney disease” (priority 2016, dated 2021):
Like-named read-outs stand apart in the source and are kept apart here. Starred links: 1 amine or outer side, 2 acyl side, 3 side chain; linkers in the order of their positions; H or OH if unused. Residues, ends and D or L forms follow the SMILES beside them. Groups on a side chain read outwards from the residue. *: point of attachment. C18 diacid = O=C(O)CCCCCCCCCCCCCCCCC(=O)*; γGlu = O=C(O)[C@H](CCC(=O)[*:2])N[*:1]; AEEA = NCCOCCOCC(=O)O

Molecular target: T1, human CRHR2b (Homo sapiens, UniProt Q13324)
T1 construct: expressed in transfected cells; host or cells: Chinese Hamster Ovary (CHO) cells, transient transfection
T1 sequence (Q13324 1-438 isoform Q13324-2): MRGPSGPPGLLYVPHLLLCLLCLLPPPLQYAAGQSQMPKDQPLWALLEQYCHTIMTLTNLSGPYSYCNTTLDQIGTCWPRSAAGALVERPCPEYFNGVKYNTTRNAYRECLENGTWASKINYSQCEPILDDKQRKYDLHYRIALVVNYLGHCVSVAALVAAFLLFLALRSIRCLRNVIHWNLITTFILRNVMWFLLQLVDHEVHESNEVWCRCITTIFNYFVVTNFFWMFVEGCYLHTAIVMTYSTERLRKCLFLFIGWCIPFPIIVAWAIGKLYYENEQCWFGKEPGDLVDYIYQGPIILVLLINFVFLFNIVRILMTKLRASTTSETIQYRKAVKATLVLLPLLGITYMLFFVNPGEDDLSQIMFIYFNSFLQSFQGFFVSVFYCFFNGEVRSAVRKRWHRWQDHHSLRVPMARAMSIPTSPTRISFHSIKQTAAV
Assay: human CRHR2b cell-based cAMP assay
Summary of the method: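 ED50 values are means ± SEM over several runs, curve-fitted from cAMP in pmol, calibrated against unlabeled-cAMP standards. Detection was HTRF competition, ratio 665/620 nm, after 30 min agonist exposure at 37 °C.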

[1] = cAMP assay, Table 26, compounds of Example 9, read-out: hCRHR2b Average EC50

SMILES | EC50 [1] [nM] | EC50 [nM]
CC[C@H](C)[C@H](N)C(=O)N[C@H](C(=O)N[C@@H](CC(C)C)C(=O)N[C@@H](CO)C(=O)N[C@@H](CC(C)C)C(=O)N[C@@H](CC(=O)O)C(=O)N[C@H](C(=O)N1CCC[C@H]1C(=O)N[C@H](C(=O)NCC(=O)N[C@@H](CC(C)C)C(=O)N[C@@H](CC(C)C)C(=O)N[C@@H](CCC(N)=O)C(=O)N[C@H](C(=O)N[C@@H](CC(C)C)C(=O)N[C@@H](CC(C)C)C(=O)N[C@@H](CCC(=O)O)C(=O)N[C@@H](CCC(N)=O)C(=O)N[C@@H](CCC(=O)O)C(=O)N[C@@H](CCCCN)C(=O)N[C@@H](CCC(N)=O)C(=O)N[C@@H](CCC(=O)O)C(=O)N[C@@H](CCCCN)C(=O)N[C@@H](CCC(=O)O)C(=O)N[C@@H](CCCCN)C(=O)N[C@@H](CCCCNC(=O)COCCOCCNC(=O)COCCOCCNC(=O)CC[C@H](NC(=O)CC[C@H](NC(=O)CCCCCCCCCCCCCCCCC(=O)O)C(=O)O)C(=O)O)C(=O)N[C@@H](CCC(N)=O)C(=O)N[C@@H](C)C(=O)N[C@H](C(=O)N[C@H](C(=O)N[C@@H](CC(N)=O)C(=O)N[C@@H](C)C(=O)N[C@@H](CCC(N)=O)C(=O)N[C@H](C(=O)N[C@@H](CC(C)C)C(=O)N[C@@H](C)C(=O)N[C@@H](Cc1c[nH]cn1)C(=O)N[C@H](C(N)=O)C(C)C)[C@@H](C)CC)[C@@H](C)O)[C@@H](C)O)[C@@H](C)CC)[C@@H](C)CC)C(C)C)C(C)C [Compound 47] (H-IVLSLDVPIGLLQILLEQEKQEKEKK([AEEA-AEEA-γGlu-γGlu-C18 diacid])QATTNAQILAHV-NH2) | 4.56 | –
CC[C@H](C)[C@H](N)C(=O)N[C@H](C(=O)N[C@@H](CC(C)C)C(=O)N[C@@H](CO)C(=O)N[C@@H](CC(C)C)C(=O)N[C@@H](CC(=O)O)C(=O)N[C@H](C(=O)N1CCC[C@H]1C(=O)N[C@H](C(=O)NCC(=O)N[C@@H](CC(C)C)C(=O)N[C@@H](CC(C)C)C(=O)N[C@@H](CCC(N)=O)C(=O)N[C@H](C(=O)N[C@@H](CC(C)C)C(=O)N[C@@H](CC(C)C)C(=O)N[C@@H](CCC(=O)O)C(=O)N[C@@H](CCC(N)=O)C(=O)N[C@@H](CCC(=O)O)C(=O)N[C@@H](CCCCN)C(=O)N[C@@H](CCC(N)=O)C(=O)N[C@@H](CCC(=O)O)C(=O)N[C@@H](CCCCN)C(=O)N[C@@H](CCC(=O)O)C(=O)N[C@@H](CCCCN)C(=O)N[C@@H](CCC(N)=O)C(=O)N[C@@H](CCC(N)=O)C(=O)N[C@@H](C)C(=O)N[C@@H](CCCCNC(=O)COCCOCCNC(=O)COCCOCCNC(=O)CC[C@H](NC(=O)CC[C@H](NC(=O)CCCCCCCCCCCCCCCCC(=O)O)C(=O)O)C(=O)O)C(=O)N[C@H](C(=O)N[C@@H](CC(N)=O)C(=O)N[C@@H](C)C(=O)N[C@@H](CCC(N)=O)C(=O)N[C@H](C(=O)N[C@@H](CC(C)C)C(=O)N[C@@H](C)C(=O)N[C@@H](Cc1c[nH]cn1)C(=O)N[C@H](C(N)=O)C(C)C)[C@@H](C)CC)[C@@H](C)O)[C@@H](C)CC)[C@@H](C)CC)C(C)C)C(C)C [Compound 48] (H-IVLSLDVPIGLLQILLEQEKQEKEKQQAK([AEEA-AEEA-γGlu-γGlu-C18 diacid])TNAQILAHV-NH2) | 3.61 | –
CC[C@H](C)[C@H](N)C(=O)N[C@H](C(=O)N[C@@H](CC(C)C)C(=O)N[C@@H](CO)C(=O)N[C@@H](CC(C)C)C(=O)N[C@@H](CC(=O)O)C(=O)N[C@H](C(=O)N1CCC[C@H]1C(=O)N[C@H](C(=O)N[C@@H](CCCCNC(=O)COCCOCCNC(=O)COCCOCCNC(=O)CC[C@H](NC(=O)CC[C@H](NC(=O)CCCCCCCCCCCCCCCCC(=O)O)C(=O)O)C(=O)O)C(=O)N[C@@H](CC(C)C)C(=O)N[C@@H](CC(C)C)C(=O)N[C@@H](CCC(N)=O)C(=O)N[C@H](C(=O)N[C@@H](CC(C)C)C(=O)N[C@@H](CC(C)C)C(=O)N[C@@H](CCC(=O)O)C(=O)N[C@@H](CCC(N)=O)C(=O)N[C@@H](CCC(=O)O)C(=O)N[C@@H](CCCCN)C(=O)N[C@@H](CCC(N)=O)C(=O)N[C@@H](CCC(=O)O)C(=O)N[C@@H](CCCCN)C(=O)N[C@@H](CCC(=O)O)C(=O)N[C@@H](CCCCN)C(=O)N[C@@H](CCC(N)=O)C(=O)N[C@@H](CCC(N)=O)C(=O)N[C@@H](C)C(=O)N[C@H](C(=O)N[C@H](C(=O)N[C@@H](CC(N)=O)C(=O)N[C@@H](C)C(=O)N[C@@H](CCC(N)=O)C(=O)N[C@H](C(=O)N[C@@H](CC(C)C)C(=O)N[C@@H](C)C(=O)N[C@@H](CCC(N)=O)C(=O)N[C@H](C(N)=O)C(C)C)[C@@H](C)CC)[C@@H](C)O)[C@@H](C)O)[C@@H](C)CC)[C@@H](C)CC)C(C)C)C(C)C [Compound 49] (H-IVLSLDVPIK([AEEA-AEEA-γGlu-γGlu-C18 diacid])LLQILLEQEKQEKEKQQATTNAQILAQV-NH2) | 2.86 | –
CC[C@H](C)[C@H](N)C(=O)N[C@H](C(=O)N[C@@H](CC(C)C)C(=O)N[C@@H](CO)C(=O)N[C@@H](CC(C)C)C(=O)N[C@@H](CC(=O)O)C(=O)N[C@H](C(=O)N1CCC[C@H]1C(=O)N[C@H](C(=O)NCC(=O)N[C@@H](CC(C)C)C(=O)N[C@@H](CC(C)C)C(=O)N[C@@H](CCC(N)=O)C(=O)N[C@H](C(=O)N[C@@H](CC(C)C)C(=O)N[C@@H](CC(C)C)C(=O)N[C@@H](CCCCNC(=O)COCCOCCNC(=O)COCCOCCNC(=O)CC[C@H](NC(=O)CC[C@H](NC(=O)CCCCCCCCCCCCCCCCC(=O)O)C(=O)O)C(=O)O)C(=O)N[C@@H](CCC(N)=O)C(=O)N[C@@H](CCC(=O)O)C(=O)N[C@@H](CCCCN)C(=O)N[C@@H](CCC(N)=O)C(=O)N[C@@H](CCC(=O)O)C(=O)N[C@@H](CCCCN)C(=O)N[C@@H](CCC(=O)O)C(=O)N[C@@H](CCCCN)C(=O)N[C@@H](CCC(N)=O)C(=O)N[C@@H](CCC(N)=O)C(=O)N[C@@H](C)C(=O)N[C@H](C(=O)N[C@H](C(=O)N[C@@H](CC(N)=O)C(=O)N[C@@H](C)C(=O)N[C@@H](CCC(N)=O)C(=O)N[C@H](C(=O)N[C@@H](CC(C)C)C(=O)N[C@@H](C)C(=O)N[C@@H](CCC(N)=O)C(=O)N[C@H](C(N)=O)C(C)C)[C@@H](C)CC)[C@@H](C)O)[C@@H](C)O)[C@@H](C)CC)[C@@H](C)CC)C(C)C)C(C)C [Compound 50] (H-IVLSLDVPIGLLQILLK([AEEA-AEEA-γGlu-γGlu-C18 diacid])QEKQEKEKQQATTNAQILAQV-NH2) | – | 3.56
CC[C@H](C)[C@H](N)C(=O)N[C@H](C(=O)N[C@@H](CC(C)C)C(=O)N[C@@H](CO)C(=O)N[C@@H](CC(C)C)C(=O)N[C@@H](CC(=O)O)C(=O)N[C@H](C(=O)N1CCC[C@H]1C(=O)N[C@H](C(=O)NCC(=O)N[C@@H](CC(C)C)C(=O)N[C@@H](CC(C)C)C(=O)N[C@@H](CCC(N)=O)C(=O)N[C@H](C(=O)N[C@@H](CC(C)C)C(=O)N[C@@H](CC(C)C)C(=O)N[C@@H](CCC(=O)O)C(=O)N[C@@H](CCC(N)=O)C(=O)N[C@@H](CCC(=O)O)C(=O)N[C@@H](CCCCN)C(=O)N[C@@H](CCC(N)=O)C(=O)N[C@@H](CCC(=O)O)C(=O)N[C@@H](CCCCN)C(=O)N[C@@H](CCC(=O)O)C(=O)N[C@@H](CCCCN)C(=O)N[C@@H](CCCCNC(=O)COCCOCCNC(=O)COCCOCCNC(=O)CC[C@H](NC(=O)CC[C@H](NC(=O)CCCCCCCCCCCCCCCCC(=O)O)C(=O)O)C(=O)O)C(=O)N[C@@H](CCC(N)=O)C(=O)N[C@@H](C)C(=O)N[C@H](C(=O)N[C@H](C(=O)N[C@@H](CC(N)=O)C(=O)N[C@@H](C)C(=O)N[C@@H](CCC(N)=O)C(=O)N[C@H](C(=O)N[C@@H](CC(C)C)C(=O)N[C@@H](C)C(=O)N[C@@H](CCC(N)=O)C(=O)N[C@H](C(N)=O)C(C)C)[C@@H](C)CC)[C@@H](C)O)[C@@H](C)O)[C@@H](C)CC)[C@@H](C)CC)C(C)C)C(C)C [Compound 51] (H-IVLSLDVPIGLLQILLEQEKQEKEKK([AEEA-AEEA-γGlu-γGlu-C18 diacid])QATTNAQILAQV-NH2) | 2.42 | –
CC[C@H](C)[C@H](N)C(=O)N[C@H](C(=O)N[C@@H](CC(C)C)C(=O)N[C@@H](CO)C(=O)N[C@@H](CC(C)C)C(=O)N[C@@H](CC(=O)O)C(=O)N[C@H](C(=O)N1CCC[C@H]1C(=O)N[C@H](C(=O)NCC(=O)N[C@@H](CC(C)C)C(=O)N[C@@H](CC(C)C)C(=O)N[C@@H](CCC(N)=O)C(=O)N[C@H](C(=O)N[C@@H](CC(C)C)C(=O)N[C@@H](CC(C)C)C(=O)N[C@@H](CCC(=O)O)C(=O)N[C@@H](CCC(N)=O)C(=O)N[C@@H](CCC(=O)O)C(=O)N[C@@H](CCCCN)C(=O)N[C@@H](CCC(N)=O)C(=O)N[C@@H](CCC(=O)O)C(=O)N[C@@H](CCCCN)C(=O)N[C@@H](CCC(=O)O)C(=O)N[C@@H](CCCCN)C(=O)N[C@@H](CCC(N)=O)C(=O)N[C@@H](CCC(N)=O)C(=O)N[C@@H](C)C(=O)N[C@@H](CCCCNC(=O)COCCOCCNC(=O)COCCOCCNC(=O)CC[C@H](NC(=O)CC[C@H](NC(=O)CCCCCCCCCCCCCCCCC(=O)O)C(=O)O)C(=O)O)C(=O)N[C@H](C(=O)N[C@@H](CC(N)=O)C(=O)N[C@@H](C)C(=O)N[C@@H](CCC(N)=O)C(=O)N[C@H](C(=O)N[C@@H](CC(C)C)C(=O)N[C@@H](C)C(=O)N[C@@H](CCC(N)=O)C(=O)N[C@H](C(N)=O)C(C)C)[C@@H](C)CC)[C@@H](C)O)[C@@H](C)CC)[C@@H](C)CC)C(C)C)C(C)C [Compound 52] (H-IVLSLDVPIGLLQILLEQEKQEKEKQQAK([AEEA-AEEA-γGlu-γGlu-C18 diacid])TNAQILAQV-NH2) | 1.16 | –
